This is an account of results in ChEMBL document CHEMBL4507282, “Data for DCP probe BI-1950” (2021).

The target of assay [1] is Serotonin 1 (5-HT1) receptor (Rattus norvegicus) (UniProt P28564+P30940+P19327+P28565). The assay is described as follows: 5HT1/R Eurofins-Panlabs selectivity data (BI). The class given is protein assay. The conditions noted are these: Compound concentration 10.0 uM.
In assay [2] the target is Histamine H1 receptor (Homo sapiens) (UniProt P35367). The assay is described as follows: H1/H Eurofins-Panlabs selectivity data (BI). The conditions noted are these: Compound concentration 10.0 uM.
Histamine H1 receptor (Homo sapiens), sequence (P35367 whole entry): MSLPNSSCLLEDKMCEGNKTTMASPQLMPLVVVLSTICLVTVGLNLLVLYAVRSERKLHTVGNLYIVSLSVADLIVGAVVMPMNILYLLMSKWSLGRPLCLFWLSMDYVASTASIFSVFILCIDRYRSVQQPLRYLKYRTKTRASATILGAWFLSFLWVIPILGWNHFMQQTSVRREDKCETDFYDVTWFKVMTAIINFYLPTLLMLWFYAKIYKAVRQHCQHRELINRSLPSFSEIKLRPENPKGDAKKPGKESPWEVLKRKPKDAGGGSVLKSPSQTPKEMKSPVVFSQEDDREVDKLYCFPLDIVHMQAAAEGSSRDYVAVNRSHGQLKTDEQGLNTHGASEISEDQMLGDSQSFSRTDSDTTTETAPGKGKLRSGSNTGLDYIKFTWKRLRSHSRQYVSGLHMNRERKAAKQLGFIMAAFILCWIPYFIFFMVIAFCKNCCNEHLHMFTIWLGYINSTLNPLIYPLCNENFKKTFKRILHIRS
In assay [3] the target is Muscarinic acetylcholine receptor (Rattus norvegicus) (UniProt P08482+P08483+P08485+P08911+P10980). The assay is described as follows: MUSCARIN/NS Eurofins-Panlabs selectivity data (BI). Particulars: Compound concentration 10.0 uM. The class given is protein assay.
Assay [4] deals with ATP-sensitive inward rectifier potassium channel 1 isoform X1 (Mesocricetus auratus) (UniProt A0A1U8CU73). Put plainly: K+/KATP/HA Eurofins-Panlabs selectivity data (BI). Particulars: Compound concentration 10.0 uM.
ATP-sensitive inward rectifier potassium channel 1 isoform X1 (Mesocricetus auratus), sequence (A0A1U8CU73 as listed by the source): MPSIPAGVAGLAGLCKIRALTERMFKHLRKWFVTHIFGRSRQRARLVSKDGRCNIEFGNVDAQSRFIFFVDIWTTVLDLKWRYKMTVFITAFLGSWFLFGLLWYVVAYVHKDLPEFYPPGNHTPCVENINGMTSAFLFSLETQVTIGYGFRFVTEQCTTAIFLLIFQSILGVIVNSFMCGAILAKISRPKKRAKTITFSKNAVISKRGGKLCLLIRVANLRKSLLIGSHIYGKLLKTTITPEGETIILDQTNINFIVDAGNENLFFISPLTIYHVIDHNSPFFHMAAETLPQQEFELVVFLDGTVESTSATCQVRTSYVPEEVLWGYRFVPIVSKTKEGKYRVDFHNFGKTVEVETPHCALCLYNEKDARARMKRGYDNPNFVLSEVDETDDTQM
For assay [5], the target named is Sodium channel regulatory subunit beta-1 (Rattus norvegicus) (UniProt Q00954). The assay is described as follows: NA+/SITE2/RA Eurofins-Panlabs selectivity data (BI).
Sodium channel regulatory subunit beta-1 (Rattus norvegicus), sequence (Q00954 whole entry): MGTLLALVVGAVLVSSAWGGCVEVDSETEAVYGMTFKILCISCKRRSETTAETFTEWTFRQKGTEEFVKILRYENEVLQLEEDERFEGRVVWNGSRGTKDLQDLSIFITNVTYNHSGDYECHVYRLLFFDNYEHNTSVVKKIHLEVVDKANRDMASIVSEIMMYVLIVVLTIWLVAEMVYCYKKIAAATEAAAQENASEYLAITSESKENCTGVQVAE
The target of assay [6] is D(1A) dopamine receptor (Homo sapiens) (UniProt P21728). The assay is described as follows: D1/HU Eurofins-Panlabs selectivity data (BI). Particulars: Compound concentration 10.0 uM.
D(1A) dopamine receptor (Homo sapiens), sequence (P21728 whole entry): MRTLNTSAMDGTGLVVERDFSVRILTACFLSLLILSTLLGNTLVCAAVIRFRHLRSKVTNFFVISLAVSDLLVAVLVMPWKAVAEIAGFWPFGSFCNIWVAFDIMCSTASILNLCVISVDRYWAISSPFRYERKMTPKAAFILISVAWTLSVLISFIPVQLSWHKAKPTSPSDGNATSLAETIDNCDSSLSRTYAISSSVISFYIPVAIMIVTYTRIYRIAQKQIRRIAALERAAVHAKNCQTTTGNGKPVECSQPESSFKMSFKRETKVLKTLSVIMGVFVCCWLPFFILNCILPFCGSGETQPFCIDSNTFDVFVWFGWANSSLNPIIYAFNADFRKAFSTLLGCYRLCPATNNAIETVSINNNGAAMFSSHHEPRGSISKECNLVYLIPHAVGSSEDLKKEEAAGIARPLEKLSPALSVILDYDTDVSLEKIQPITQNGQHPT
Assay [7] has as its target Voltage-dependent N-type calcium channel subunit alpha-1B (Rattus norvegicus) (UniProt Q02294). The assay is described as follows: CA+/N/RA Eurofins-Panlabs selectivity data (BI). Particulars: Compound concentration 10.0 uM.
Assay [8] addresses Opioid receptor (Rattus norvegicus) (UniProt P33533+P34975+P33535). The assay is described as follows: OPIAT/NS Eurofins-Panlabs selectivity data (BI). It is filed as protein assay. Particulars: Compound concentration 10.0 uM.
Assay [9] concerns the target Sigma non-opioid intracellular receptor 1 (Homo sapiens) (UniProt Q99720). The conditions noted are these: Compound concentration 10.0 uM.
The target in assay [10] is Histamine H3 receptor (Homo sapiens) (UniProt Q9Y5N1). The assay is described as follows: H3/H Eurofins-Panlabs selectivity data (BI). The conditions noted are these: Compound concentration 10.0 uM.
Histamine H3 receptor (Homo sapiens), sequence (Q9Y5N1 whole entry): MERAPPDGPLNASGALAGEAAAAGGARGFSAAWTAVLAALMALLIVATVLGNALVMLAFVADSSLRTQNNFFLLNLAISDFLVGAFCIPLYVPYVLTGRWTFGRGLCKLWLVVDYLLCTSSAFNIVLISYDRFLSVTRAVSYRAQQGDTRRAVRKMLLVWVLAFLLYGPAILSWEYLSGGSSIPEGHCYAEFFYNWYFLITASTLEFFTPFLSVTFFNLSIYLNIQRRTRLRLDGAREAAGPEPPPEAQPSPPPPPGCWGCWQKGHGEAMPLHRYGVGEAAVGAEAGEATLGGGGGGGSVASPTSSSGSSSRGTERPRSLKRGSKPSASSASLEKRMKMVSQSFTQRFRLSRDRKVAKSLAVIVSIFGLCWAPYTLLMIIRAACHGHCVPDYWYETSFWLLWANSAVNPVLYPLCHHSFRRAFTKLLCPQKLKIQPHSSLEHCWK
The target in assay [11] is Sodium-dependent noradrenaline transporter (Homo sapiens) (UniProt P23975). The conditions noted are these: Compound concentration 10.0 uM.
Sodium-dependent noradrenaline transporter (Homo sapiens), sequence (P23975 whole entry): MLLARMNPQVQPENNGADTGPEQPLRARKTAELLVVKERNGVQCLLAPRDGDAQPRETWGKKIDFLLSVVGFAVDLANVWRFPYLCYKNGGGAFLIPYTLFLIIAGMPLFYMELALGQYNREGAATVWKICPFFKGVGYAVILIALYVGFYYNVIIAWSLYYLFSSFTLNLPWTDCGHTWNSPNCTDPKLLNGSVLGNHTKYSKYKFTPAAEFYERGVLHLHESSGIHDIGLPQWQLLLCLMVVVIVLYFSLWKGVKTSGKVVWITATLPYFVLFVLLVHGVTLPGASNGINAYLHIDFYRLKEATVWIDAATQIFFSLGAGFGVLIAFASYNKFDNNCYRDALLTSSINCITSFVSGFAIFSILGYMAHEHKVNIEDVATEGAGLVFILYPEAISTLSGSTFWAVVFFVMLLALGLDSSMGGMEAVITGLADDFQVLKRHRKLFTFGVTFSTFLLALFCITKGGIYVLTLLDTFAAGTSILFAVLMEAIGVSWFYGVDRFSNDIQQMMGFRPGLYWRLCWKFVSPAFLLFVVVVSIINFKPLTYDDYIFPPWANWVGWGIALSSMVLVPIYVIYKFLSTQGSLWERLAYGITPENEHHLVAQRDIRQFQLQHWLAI
Assay [12] addresses Sodium-dependent serotonin transporter (Homo sapiens) (UniProt P31645). The assay is described as follows: 5HTTRANS/HU Eurofins-Panlabs selectivity data (BI). Particulars: Compound concentration 10.0 uM.
Assay [13] addresses Potassium voltage-gated channel subfamily A member 1 (Rattus norvegicus) (UniProt P10499). Put plainly: K+/KA/R Eurofins-Panlabs selectivity data (BI). Particulars: Compound concentration 10.0 uM.
The target in assay [14] is Glutamate receptor ionotropic, NMDA 1 (Rattus norvegicus) (UniProt P35439). The assay is described as follows: GLUTAMAT/R Eurofins-Panlabs selectivity data (BI). Particulars: Compound concentration 10.0 uM.
Another assay is described as follows: tissue or blood. The conditions noted are these: Homo sapiens. The class given is tissue-based.
For assay [15], the target named is Sigma intracellular receptor 2 (Homo sapiens, UniProt Q5BJF2). The assay is described as follows: GPCRScan assay: inhibition of Sigma 2. Also on record: radioligand conc. used [nm] 5.0, parental cells HEKT.
Sigma intracellular receptor 2, sequence (Q5BJF2 whole entry): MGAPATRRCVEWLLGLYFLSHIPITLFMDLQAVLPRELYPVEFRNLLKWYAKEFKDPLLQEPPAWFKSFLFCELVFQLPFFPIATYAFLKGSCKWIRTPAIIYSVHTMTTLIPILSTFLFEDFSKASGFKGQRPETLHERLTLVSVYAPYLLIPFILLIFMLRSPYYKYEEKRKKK

Sodium-dependent serotonin transporter (Homo sapiens), sequence (P31645 whole entry, looked up): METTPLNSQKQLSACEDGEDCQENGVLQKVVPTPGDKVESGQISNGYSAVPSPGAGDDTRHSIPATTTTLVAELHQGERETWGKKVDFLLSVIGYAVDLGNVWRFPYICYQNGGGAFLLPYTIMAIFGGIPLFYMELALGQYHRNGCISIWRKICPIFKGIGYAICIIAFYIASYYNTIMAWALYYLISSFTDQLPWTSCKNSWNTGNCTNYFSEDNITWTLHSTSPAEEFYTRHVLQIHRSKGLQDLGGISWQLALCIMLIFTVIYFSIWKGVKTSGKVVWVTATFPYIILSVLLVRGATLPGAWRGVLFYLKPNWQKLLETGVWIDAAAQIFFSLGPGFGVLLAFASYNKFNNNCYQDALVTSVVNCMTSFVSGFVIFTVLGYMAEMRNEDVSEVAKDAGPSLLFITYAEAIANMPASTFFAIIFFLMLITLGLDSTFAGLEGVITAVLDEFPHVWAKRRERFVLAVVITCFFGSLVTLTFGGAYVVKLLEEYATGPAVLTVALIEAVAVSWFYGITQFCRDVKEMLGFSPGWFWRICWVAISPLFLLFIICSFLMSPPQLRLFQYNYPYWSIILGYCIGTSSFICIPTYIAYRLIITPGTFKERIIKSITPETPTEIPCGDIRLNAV
Opioid receptor (Rattus norvegicus), sequence (P33533 whole entry, looked up): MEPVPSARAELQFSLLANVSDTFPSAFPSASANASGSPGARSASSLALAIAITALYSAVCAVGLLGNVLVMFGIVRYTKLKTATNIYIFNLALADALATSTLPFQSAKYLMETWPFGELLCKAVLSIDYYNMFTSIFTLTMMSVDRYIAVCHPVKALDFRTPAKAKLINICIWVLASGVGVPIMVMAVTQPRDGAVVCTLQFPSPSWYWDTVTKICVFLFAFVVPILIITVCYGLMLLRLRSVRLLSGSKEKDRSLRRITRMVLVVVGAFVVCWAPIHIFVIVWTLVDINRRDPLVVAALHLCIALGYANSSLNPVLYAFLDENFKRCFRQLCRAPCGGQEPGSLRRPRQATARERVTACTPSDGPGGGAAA
Opioid receptor (Rattus norvegicus), sequence (P33535 whole entry, looked up): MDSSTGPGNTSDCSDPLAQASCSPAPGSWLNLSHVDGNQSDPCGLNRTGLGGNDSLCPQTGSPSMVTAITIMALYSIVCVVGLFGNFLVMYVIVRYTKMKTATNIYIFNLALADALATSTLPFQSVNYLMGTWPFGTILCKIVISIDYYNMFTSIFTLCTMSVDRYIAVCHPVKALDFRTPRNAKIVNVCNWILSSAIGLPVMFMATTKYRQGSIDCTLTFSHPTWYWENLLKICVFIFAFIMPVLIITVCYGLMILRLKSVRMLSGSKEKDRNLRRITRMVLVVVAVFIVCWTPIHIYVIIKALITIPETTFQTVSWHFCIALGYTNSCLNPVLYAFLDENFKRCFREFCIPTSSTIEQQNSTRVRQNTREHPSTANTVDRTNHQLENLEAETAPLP
Opioid receptor (Rattus norvegicus), sequence (P34975 whole entry, looked up): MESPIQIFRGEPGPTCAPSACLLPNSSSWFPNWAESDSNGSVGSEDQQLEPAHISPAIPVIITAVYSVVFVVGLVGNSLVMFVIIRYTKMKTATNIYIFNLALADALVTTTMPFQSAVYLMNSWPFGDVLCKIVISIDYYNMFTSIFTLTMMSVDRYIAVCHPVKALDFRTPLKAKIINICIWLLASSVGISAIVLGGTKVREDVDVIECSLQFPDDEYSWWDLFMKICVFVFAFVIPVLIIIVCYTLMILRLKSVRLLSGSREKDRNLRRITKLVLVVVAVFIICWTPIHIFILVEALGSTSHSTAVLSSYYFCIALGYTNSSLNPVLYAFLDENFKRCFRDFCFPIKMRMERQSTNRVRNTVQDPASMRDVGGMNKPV
Sigma non-opioid intracellular receptor 1 (Homo sapiens), sequence (Q99720 whole entry): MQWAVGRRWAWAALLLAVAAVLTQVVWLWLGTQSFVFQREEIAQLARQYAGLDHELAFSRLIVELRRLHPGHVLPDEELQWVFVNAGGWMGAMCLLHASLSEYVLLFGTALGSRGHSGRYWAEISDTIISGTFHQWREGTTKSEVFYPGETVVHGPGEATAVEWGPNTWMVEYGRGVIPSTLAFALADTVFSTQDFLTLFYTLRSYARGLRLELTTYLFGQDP

Broadly, the residual activity is the signal under treatment as a percentage of the control signal. Usually inhibition stands for the change of the read-out against control, counted positive when it falls. As to `C[C@H](NC(=O)c1cnc2n1[C@](C)(Cc1ccc(C#N)cc1)C(=O)N2c1cc(Cl)c(F)c(Cl)c1)C(=O)NC1(c2ccccn2)CC1` [BI 1950], the residual activity in assay [1] is 100%; in assay [2], 109%; in [3] it was 109%; in assay [4], 107%; in [5] (Compound concentration 0.03 uM), 103%; in assay [5] (Compound concentration 0.1 uM) it was 86%. In addition, the residual activity in assay [5] (Compound concentration 0.3 uM) was 84%; in assay [5] (Compound concentration 1.0 uM), 75%; in assay [5] (Compound concentration 3.0 uM), 67%; in assay [5] (Compound concentration 10.0 uM) it was 42%; in assay [6], 92%; in assay [7], 102%. The residual activity in assay [8] was 78%; in assay [10], 98%; in [12] it was 119%; in [13], 92%; in [14], 92%. Besides, the inhibition was -6.44% in assay [9] and -2.81% in assay [11].

Usually IC50 stands for the midpoint of a concentration-inhibition curve. Lower therefore signals greater potency. The molecule `C[C@@]1(Cc2ccc(C#N)cc2)C(=O)N(c2cc(Cl)cc(Cl)c2)c2ncc(C(=O)NC3(c4nc(C5CCC5)no4)CC3)n21` [BI 9446] had an IC50 in “tissue or blood” of over 1000 nM. Also, the Ki is 558 nM in [15] (read-out: Ki) and 507 nM in [15] (read-out: pKi (converted)).
